Target: Delta-type opioid receptor (Mus musculus, UniProt P32300)
Test: Agonist activity at delta opioid receptor in ICR mouse isolated vas deferens assessed as inhibition of electrically-stimulated muscle contraction

Chain of Delta-type opioid receptor (P32300 whole entry): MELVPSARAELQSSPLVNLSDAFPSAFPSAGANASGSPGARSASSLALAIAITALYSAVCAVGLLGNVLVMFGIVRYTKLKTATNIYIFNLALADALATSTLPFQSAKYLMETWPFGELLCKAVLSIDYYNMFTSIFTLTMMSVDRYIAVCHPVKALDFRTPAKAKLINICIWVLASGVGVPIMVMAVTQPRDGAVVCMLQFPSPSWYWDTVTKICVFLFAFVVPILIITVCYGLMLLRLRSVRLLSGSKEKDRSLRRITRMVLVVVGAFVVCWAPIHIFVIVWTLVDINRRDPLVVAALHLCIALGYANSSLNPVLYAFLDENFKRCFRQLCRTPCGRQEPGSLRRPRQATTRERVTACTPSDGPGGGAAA

**Q.** With `CC(C)C[C@H](NC(=O)[C@@H]1CCCN1C(=O)[C@H](Cc1ccc(F)cc1)NC(=O)CNC(=O)[C@@H](C)NC(=O)[C@@H](N)Cc1ccc(O)cc1)C(=O)N[C@@H](Cc1c[nH]c2ccccc12)C(=O)NCc1cc(C(F)(F)F)cc(C(F)(F)F)c1` as the compound, how does the IC50 read?
**A.** Its IC50 is 12 nM.

Reference: BindingDB's records for doi:10.1021/acs.jmedchem.5b01170 (University of Arizona, 2015)
